The text below walks through data of patent US20220267280A1, “SMALL MOLECULE STIMULATORS OF THE CORE PARTICLE OF THE PROTEASOME” (Purdue Research Foundation, priority 2019, published 2022).

Molecules are shown by their SMILES. pEC50: −log10 of the molar value. Entries after “also recorded” stand apart in the source; their conditions may differ.

In assay [1] the test system is 20S CP. Briefly: standard FRET assay with the standard 20S CP. Conditions: for % activity increase (increase in 20S proteasome activity): derivative at 25 μM, in triplicate. The format is biochemical. How it is done: (§1) Miconazole was discovered as a stimulator of the 20S CP during a screen of the NIH Clinical Collection (NCC), using our previously described FRET assay.^15,21 However, this screen utilized a modulated FRET peptide that substituted an aspartic acid for the phenylalanine. Hydrolysis of the FRET peptide produces a fluorescent signal that can be monitored over time to determine the activity level of the 20S CP. Screening the NCC was performed in 384-well plates on a Tecan plate reader, monitoring the emission wavelength of the FRET peptide over a 1 hr period. Each compound was screened at a final concentration of 25 μM in singlet. A linear regression was performed for the change in fluorescence over time, producing a slope. This value for each compound was then compared to that of a DMSO control (20S CP basal level activity), which was included in triplicate for each plate. Primary hit compounds were determined to be those with a slope 50% greater than that of the DMSO control.
All primary hits were then validated in triplicate, using this reporter and the standard FRET reporter. Following triplicate validation, the hits were purchased from other sources and tested once again for the effect of each on the 20S CP, using the standard FRET assay (FIG. 2A).
Following a mechanistic analysis of miconazole, a dose-response study was performed using the FRET assay and the standard 20S CP.
Each derivative of miconazole is tested at 25 μM in triplicate, using our standard FRET assay. Included in each plate is 25 μM miconazole in triplicate as a positive control. This is also performed to determine how well a derivative compares to the original compound. Derivatives that enhance 20S CP activity are then used for further study.

Assay [2] relates to 20S CP. Briefly: GFP-α-synuclein fusion cell assay, Western blot for GFP. The format is cell-based. Conditions: for alpha-synuclein degradation (quantitation of gel bands): 25 μM for 16 hrs, duplicate. An excerpt: In this study, HEK-293T cells are transiently transfected to express a GFP-α-synuclein construct. α-Synuclein is a known substrate of the 20S CP, whereas GFP is too large and well-folded to enter the gate of the 20S CP for degradation. Therefore, 20S CP-mediated hydrolysis of this construct degrades the α-synuclein portion, leaving behind free GFP. […] After this time period, the cells were lysed and analyzed by Western blot for GFP. Because 20S CP-mediated hydrolysis of this fusion protein can only degrade the α-synuclein portion, the Western blot produces two clear bands, corresponding to the full fusion protein (GFP-α-synuclein) and free GFP. Quantitative analysis is performed for each sample, quantifying the relative densities of each band. The ratio of free GFP to the GFP-α-synuclein fusion was calculated. This calculated ratio of the miconazole-treated cell lysates was compared to the control (DMSO) to determine a change in 20S CP-mediated degradation.
We perform similar studies to those described above for each derivative that warrants further evaluation, including: a mechanistic analysis (FRET assay using the immunoproteasome and 26S proteasome), dose-response study to determine the EC50 of each compound, and the GFP-α-synuclein cell assay to examine the effectiveness of the miconazole derivative in cells. For the cell assay, miconazole is included as a positive control.

Assay [3] relates to 20S CP. Briefly: screen of the NIH Clinical Collection, FRET assay with modulated FRET peptide. The format is biochemical. Conditions: 25 μM, singlet, 1 hr. The method, then:
as §1

Another assay concerns immunoproteasome (iCP). Briefly: FRET assay using the immunoproteasome. The format is biochemical. The note with it: 25 μM. The method, then:
(§2) In order to determine the general mechanism of action of miconazole (i.e. allosteric modulator of a hydrolysis activity or “gate-opener”), a series of FRET assays were performed with 25 μM miconazole, using the immunoproteasome (iCP) and the 26S proteasome. The immunoproteasome contains a high degree of similarity to the standard 20S CP (sCP); however, the catalytic β-subunits have been exchanged, leading to a variation in the hydrolysis activities of this protease compared to the standard 20S CP.^22 The gates of both the immunoproteasome and the 20S CP are identical. The 26S proteasome is the standard 20S CP that has been capped by the 19S regulatory particle, which binds the a-ring of the 20S CP and creates an open-gate conformation.^23 Gate-openers of the 20S CP should still impact the activity of the immunoproteasome; however, because the gate is precluded in the 26S proteasome, this type of stimulator is believed to be ineffective with this isoform of the proteasome Similarly, a stimulator that is able to enhance at least one of the catalytic sites of the 20S CP specifically may be ineffective with the immunoproteasome, as this isoform contains different catalytic subunits than the standard 20S CP. This type of stimulator will still impact the activity of the 26S proteasome, as it contains the standard 20S CP.

Another assay has as its system 26S proteasome. Briefly: FRET assay using the 26S proteasome. The format is biochemical. The note with it: 25 μM. The method, then: as §2

Consider `CC(C)(C)c1ccc(COC(Cn2ccnc2)c2ccc(Cl)cc2Cl)cc1` (stereo not shown) [MDX1], for which, in the assay with 20S CP [1], the “% activity increase (increase in 20S proteasome activity)” value (“% activity increase” below) was 248%. The “alpha-synuclein degradation (quantitation of gel bands)” value in the assay with 20S CP [2] is recorded as “increase in alpha-synuclein degradation”.

Turning to `Clc1ccc(C(Cn2cccc2)OCc2ccccc2)c(Cl)c1` (stereo not shown) [MD3], the “% activity increase” value with 20S CP [1] was determined as 0%.

For `Clc1ccc(C(Cn2ccnc2)OCc2c(Cl)cccc2Cl)c(Cl)c1` (stereo not shown) [MD6], the “% activity increase” value in the assay with 20S CP [1] was 171%.

For the molecule `Fc1ccc(COC(Cn2cccc2)c2ccc(Cl)cc2Cl)c(F)c1` (stereo not shown) [MD2], the “% activity increase” value in the assay on 20S CP [1] was determined as 0%.

For `Cc1ccc(COC(Cn2cccc2)c2ccc(Cl)cc2Cl)c(C)c1` (stereo not shown) [MD1], the “% activity increase” value in the assay with 20S CP [1] came to 0%.

For the molecule `C#CC[n+]1ccn(CC(OCc2ccc(Cl)cc2Cl)c2ccc(Cl)cc2Cl)c1.[Br-]` (stereo not shown) [MD8], the “% activity increase” value with 20S CP [1] amounted to 0%.

Consider `Clc1ccc(C(Cn2cccc2)OCc2ccc(Br)cc2Br)c(Cl)c1` (stereo not shown) [MD4], for which, in the assay with 20S CP [1], the “% activity increase” value amounted to 0%.

For the molecule `Clc1ccc(COC(Cn2ccnc2)c2ccc(Cl)cc2Cl)c(Cl)c1` (stereo not shown) [miconazole, reference compound], in the assay on 20S CP [1] (25 μM), the “effect on standard 20S CP (sCP) activity” value is listed as “effective stimulator; also recorded: stimulatory effect”. In addition, the pEC50 on 20S CP [1] (read-out: EC50 (effective concentration that induces 50% of its maximum stimulatory effect), dose-response, standard 20S CP (sCP)) was 4.70. Further, the “increase of 20S CP activity (slope vs DMSO control)” value in the assay with 20S CP [3] was 299%. Further, the “effect on immunoproteasome (iCP) activity” value in the assay on immunoproteasome (iCP) is listed as “effective stimulator; also recorded: stimulatory effect”. Also, the “effect on 26S proteasome activity” value in the assay with 26S proteasome was “no effect”. The “enhancement of degradation of α-synuclein over the DMSO control (ratio of free GFP to GFP-α-synuclein)” value with 20S CP [2] (HEK-293T cells, 25 μM, 24 hr) is reported as 200-300%.

In the case of `Clc1ccc(C(Cn2ccnc2)OCc2ccccc2Cl)c(Cl)c1` (stereo not shown) [MD5], in the assay on 20S CP [1], the “% activity increase” value amounted to 122%.

Take `FC(F)(F)c1ccc(COC(Cn2ccnc2)c2ccc(Cl)cc2Cl)cc1` (stereo not shown) [MDX2]: the “% activity increase” value in the assay with 20S CP [1] is 232%. In addition, in the assay with 20S CP [2], the “alpha-synuclein degradation (quantitation of gel bands)” value was “increase in alpha-synuclein degradation”.

In the case of `CC(C)(C)c1ccc(C[n+]2ccn(CC(OCc3ccc(Cl)cc3Cl)c3ccc(Cl)cc3Cl)c2)cc1.[Br-]` (stereo not shown) [MDX3], the “% activity increase” value in the assay on 20S CP [1] is given as 0%.

Consider `Clc1ccc(COC(Cn2ccnc2)c2ccc(Cl)cc2Cl)cc1` (stereo not shown) [MD7], for which the “% activity increase” value in the assay on 20S CP [1] was found to be 0%.
